# In patent US10167279B2 (NOVARTIS AG, priority 2014, dated 2019):
# Assays:
# b-Raf (V600E) = b-Raf (V600E) (Homo sapiens (Human), UniProt P15056, V600E); assay: In vitro Raf activity determination (Alpha Screen, phospho-MEK), b-Raf (V600E); format: biochemical; settings: ATP 10 μM, 60 min pre-incubation, 3 hours reaction
# From the text: The activity of a compound according to the present invention can be assessed by well-known in vitro & in vivo methods. Raf inhibition data provided herein was obtained using the following procedures.
# Sf9 cells co-expressing both proteins were lysed and subjected to immobilized nickel chromatography and eluted with Imidazole. A second column (StrepII binding column) was used and eluted with desthiobiotin. Protein Tags were removed using Prescission enzyme and the protein was further purified using a flowthrough step to remove tags.
# Full length MEK1 with an inactivating K97R ATP binding site mutation is utilized as a RAF substrate. The MEK1 cDNA was subcloned with an N-terminal (his)6 tag into a vector for E. Coli expression. The MEK1 substrate was purified from E. Coli lysate by nickel affinity chromatography followed by anion exchange. The final MEK1 preparation was biotinylated (Pierce EZ-Link Sulfo-NHS-LC-Biotin) and concentrated.
# The plate was incubated for 60 minutes at room temperature. […] The additions were carried out under dark conditions to protect the detection beads from light. A lid was placed on top of the plate and incubated for 1 hour at room temperature, after which the luminescence was read on a PerkinElmer Envision instrument.
# C-Raf FL = C-Raf FL (Homo sapiens (Human), UniProt P04049, Y340E/Y341E); assay: In vitro Raf activity determination (Alpha Screen, phospho-MEK), C-Raf FL (full length, Y340E/Y341E); format: biochemical; settings: ATP 1 μM; 60 min pre-incubation; 1 hour reaction; column head does not say FL or TR
# Chain of C-Raf FL (P04049 whole entry Y340E/Y341E): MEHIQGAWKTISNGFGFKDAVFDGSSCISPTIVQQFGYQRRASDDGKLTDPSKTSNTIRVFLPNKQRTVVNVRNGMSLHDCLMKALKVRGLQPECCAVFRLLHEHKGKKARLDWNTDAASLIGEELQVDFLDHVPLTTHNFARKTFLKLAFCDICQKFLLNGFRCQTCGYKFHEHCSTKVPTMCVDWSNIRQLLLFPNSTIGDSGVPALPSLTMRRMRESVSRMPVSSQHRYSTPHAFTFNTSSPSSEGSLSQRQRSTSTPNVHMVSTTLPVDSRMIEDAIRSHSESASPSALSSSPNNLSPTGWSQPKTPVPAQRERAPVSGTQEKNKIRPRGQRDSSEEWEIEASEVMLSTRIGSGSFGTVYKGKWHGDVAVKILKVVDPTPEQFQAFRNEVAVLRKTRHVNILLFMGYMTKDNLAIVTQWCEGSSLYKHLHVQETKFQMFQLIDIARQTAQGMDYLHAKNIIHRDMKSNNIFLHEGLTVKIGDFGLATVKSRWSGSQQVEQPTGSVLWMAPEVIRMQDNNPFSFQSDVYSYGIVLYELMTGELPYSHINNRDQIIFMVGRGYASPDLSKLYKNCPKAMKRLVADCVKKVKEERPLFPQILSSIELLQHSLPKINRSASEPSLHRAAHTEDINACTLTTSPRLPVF
# Chain of C-Raf FL (P63104 whole entry partner): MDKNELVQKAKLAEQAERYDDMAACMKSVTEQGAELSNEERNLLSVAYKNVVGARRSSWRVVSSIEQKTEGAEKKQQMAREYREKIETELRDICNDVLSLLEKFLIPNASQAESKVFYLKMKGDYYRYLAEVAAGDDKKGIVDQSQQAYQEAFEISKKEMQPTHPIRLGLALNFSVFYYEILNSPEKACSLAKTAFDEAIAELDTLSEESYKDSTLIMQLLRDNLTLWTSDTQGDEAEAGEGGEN
# In short: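 Read-out is AlphaScreen luminescence using rabbit anti-p-MEK with protein A beads after EDTA stop, with IC50 fitted by non-linear regression. Reaction: Sf9-derived C-Raf plus biotinylated E. coli MEK1 K97R substrate, pH 7.5 Tris/MgCl2/DTT buffer, compound preincubated 60 min at room temperature.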
# Chain of b-Raf (V600E) (P15056 whole entry V600E): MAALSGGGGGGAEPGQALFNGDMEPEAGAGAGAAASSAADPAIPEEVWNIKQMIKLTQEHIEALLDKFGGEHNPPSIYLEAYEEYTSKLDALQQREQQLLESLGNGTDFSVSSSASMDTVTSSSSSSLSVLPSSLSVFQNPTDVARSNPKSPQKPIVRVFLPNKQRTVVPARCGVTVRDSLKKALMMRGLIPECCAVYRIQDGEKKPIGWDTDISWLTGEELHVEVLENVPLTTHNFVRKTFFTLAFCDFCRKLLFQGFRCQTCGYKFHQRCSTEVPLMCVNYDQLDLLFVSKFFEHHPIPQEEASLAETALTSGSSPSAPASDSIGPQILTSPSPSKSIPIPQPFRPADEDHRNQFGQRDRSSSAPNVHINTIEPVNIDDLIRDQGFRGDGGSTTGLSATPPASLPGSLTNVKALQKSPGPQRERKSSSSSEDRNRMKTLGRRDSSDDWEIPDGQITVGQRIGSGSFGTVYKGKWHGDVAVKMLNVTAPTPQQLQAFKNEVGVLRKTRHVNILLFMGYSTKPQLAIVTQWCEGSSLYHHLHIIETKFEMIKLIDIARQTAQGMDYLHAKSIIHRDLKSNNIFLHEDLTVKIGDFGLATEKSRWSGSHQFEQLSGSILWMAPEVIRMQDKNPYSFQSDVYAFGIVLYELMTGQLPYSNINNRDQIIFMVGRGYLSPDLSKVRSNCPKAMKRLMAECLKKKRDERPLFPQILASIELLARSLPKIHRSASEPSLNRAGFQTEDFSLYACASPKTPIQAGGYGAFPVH
IC50 (b-Raf (V600E)) [nM],IC50 (C-Raf FL) [nM],Structure (SMILES)
4,0.493,"COc1ncc(-c2cc(NC(=O)c3ccnc(C(F)(F)F)c3)cnc2C)cc1C1(F)COC1 [Example 79, N-(5′-(3-fluorooxetan-3-yl)-6′-methoxy-2-methyl-[3,3′-bipyridin]-5-yl)-2-(trifluoromethyl)isonicotin-amide]"
34.9,4.85,"COc1ncc(-c2cc(NC(=O)c3ccnc(C(C)(C)O)c3)cnc2C)cc1C1(F)COC1 [Example 81, N-(5′-(3-fluorooxetan-3-yl)-6′-methoxy-2-methyl-[3,3′-bipyridin]-5-yl)-2-(2-hydroxypropan-2-yl)isonicotinamide]"
3.73,1.13,"COc1ncc(-c2cc(NC(=O)c3ccnc(C(C)(C)F)c3)cnc2C)cc1C1(F)COC1 [Example 82, N-(5′-(3-fluorooxetan-3-yl)-6′-methoxy-2-methyl-[3,3′-bipyridin]-5-yl)-2-(2-fluoropropan-2-yl)isonicotinamide]"
0.0593,0.0136,"COc1ncc(-c2cc(NC(=O)c3cc(C(F)(F)F)ccn3)cnc2C)cc1C1(F)COC1 [Example 83, N-(5′-(3-fluorooxetan-3-yl)-6′-methoxy-2-methyl-[3,3′-bipyridin]-5-yl)-4-(trifluoromethyl)picolin-amide]"
2.21,0.351,"COc1ncc(-c2cc(NC(=O)c3cc(C(F)(F)F)ccn3)ccc2C)cc1C1(O)COC1 [Example 84, N-(3-(5-(3-hydroxyoxetan-3-yl)-6-methoxypyridin-3-yl)-4-methylphenyl)-4-(trifluoromethyl)picolin-amide]"
6.47,1.17,"COc1ncc(-c2cc(NC(=O)c3cc(C(C)(C)C#N)ccn3)ccc2C)cc1C1(O)COC1 [Example 85, 4-(2-cyanopropan-2-yl)-N-(3-(5-(3-hydroxyoxetan-3-yl)-6-methoxypyridin-3-yl)-4-methylphenyl)picolinamide]"
14.7,2.33,"COc1ncc(-c2cc(NC(=O)c3cc(C(C)(C)C#N)ccn3)cnc2C)cc1C1(F)COC1 [Example 86, 4-(2-cyanopropan-2-yl)-N-(5′-(3-fluorooxetan-3-yl)-6′-methoxy-2-methyl-[3,3′-bipyridin]-5-yl)picolinamide]"
3.56,0.622,COc1ncc(-c2cc(NC(=O)c3cc(C(C)(C)C#N)ccn3)ccc2C)cc1C1(F)COC1 [Example 87]
0.934,0.303,"COc1ncc(-c2cc(NC(=O)c3cc(C(F)(F)F)ccn3)ccc2C)cc1C1(F)COC1 [Example 88, N-(3-(5-(3-fluorooxetan-3-yl)-6-methoxypyridin-3-yl)-4-methylphenyl)-4-(trifluoromethyl)picolin-amide]"
3.61,0.386,"COc1ncc(-c2cc(NC(=O)c3cc(C(C)(F)F)ccn3)cnc2C)cc1C1(F)COC1 [Example 90, 4-(1,1-difluoroethyl)-N-(5′-(3-fluorooxetan-3-yl)-6′-methoxy-2-methyl-[3,3′-bipyridin]-5-yl)picolinamide]"
2.2,0.333,"COc1ncc(-c2cc(NC(=O)c3cc(C(C)(F)F)ccn3)ccc2C)cc1C1(O)COC1 [Example 92, 4-(1,1-difluoroethyl)-N-(3-(5-(3-hydroxyoxetan-3-yl)-6-methoxypyridin-3-yl)-4-methylphenyl)picolinamide]"
8.03,1.01,"COc1ncc(-c2cc(NC(=O)c3cc(C(C)(C)F)ccn3)cnc2C)cc1C1(F)COC1 [Example 93, N-(5′-(3-fluorooxetan-3-yl)-6′-methoxy-2-methyl-[3,3′-bipyridin]-5-yl)-4-(2-fluoropropan-2-yl)picolinamide]"
31.8,4.24,"COc1ncc(-c2cc(NC(=O)c3cc(C(C)(C)F)ccn3)cnc2C)cc1C1(O)COC1 [Example 94, 4-(2-fluoropropan-2-yl)-N-(5′-(3-hydroxyoxetan-3-yl)-6′-methoxy-2-methyl-[3,3′-bipyridin]-5-yl)picolinamide]"
